Test results published in paper PMC11879040, “Advancing systemic toxicity risk assessment: Evaluation of a NAM-based toolbox approach” (Toxicological Sciences, 2024).
Read-outs that look alike come from different tables or passages of the source.

Key:
[1] = target: cAMP-specific 3',5'-cyclic phosphodiesterase 4D, PDE4D (h) (Homo sapiens, UniProt Q08499); assay: IPP PDE4D enzymatic activity; type: biochemical; conditions: control Ro 20-1724
[2] = target: Voltage-dependent L-type Ca2+ channel (dihydropyridine site), CACNA1C (r) (Rattus norvegicus, UniProt P22002); type: binding
[3] = test system: Potassium Voltage-Gated Channel Kv non-selective, KCNQ1 (r); assay: IPP KCNQ1 binding (antagonist radioligand); set-up: species or system rat
[4] = test system: Gamma-aminobutyric acid receptor subunit alpha-1 BZD site, GABRA1A (r); type: binding, rat
[5] = target: T1, Beta-2 adrenergic receptor, ADRB2 (h) (Homo sapiens, UniProt P07550); assay: IPP ADRB2 binding (antagonist radioligand); conditions: control ICI 118551
T1 construct: purchased Eurofins Cerep (SafetyScreen44-based IPP panel)

[6] = test system: Sodium channel protein type 5 subunit alpha (site 2), SCN5A (r); type: binding, rat
[7] = target: Vasopressin V1a receptor, AVPR1A (h) (Homo sapiens, UniProt P37288); assay: IPP AVPR1A binding (agonist radioligand); conditions: ligand/control [d(CH2)5 1,Tyr(Me)2]-AVP
[8] = target: T2, Angiotensin II receptor Type-1, AGTR1 (h) (Homo sapiens, UniProt P30556); assay: IPP AGTR1 binding; conditions: ligand/control Saralasin
T2 construct: purchased Eurofins Cerep (SafetyScreen44-based IPP panel)
T2 sequence (P30556 1-359): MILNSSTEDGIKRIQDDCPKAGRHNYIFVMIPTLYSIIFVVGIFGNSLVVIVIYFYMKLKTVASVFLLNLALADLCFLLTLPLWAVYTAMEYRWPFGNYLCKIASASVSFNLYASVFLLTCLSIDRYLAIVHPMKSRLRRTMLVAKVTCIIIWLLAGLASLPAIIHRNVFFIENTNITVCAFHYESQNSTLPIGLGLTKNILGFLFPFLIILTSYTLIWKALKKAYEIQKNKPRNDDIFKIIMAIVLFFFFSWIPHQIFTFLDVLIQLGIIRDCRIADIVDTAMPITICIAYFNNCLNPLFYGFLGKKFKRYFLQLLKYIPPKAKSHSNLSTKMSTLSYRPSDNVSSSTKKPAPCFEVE

[9] = target: Angiotensin-converting enzyme 2, ACE2 (h) (Homo sapiens, UniProt Q9BYF1); assay: IPP ACE2 enzymatic activity; type: biochemical; conditions: 10 uM; control captopril
Tubulin (r) = assay: IPP Tubulin binding; set-up: species or system rat
[10] = target: T3, 5-hydroxytryptamine receptor 1A, HTR1A (h) (Homo sapiens, UniProt P08908); conditions: control 8-OH-DPAT
T3 sequence (P08908 1-422): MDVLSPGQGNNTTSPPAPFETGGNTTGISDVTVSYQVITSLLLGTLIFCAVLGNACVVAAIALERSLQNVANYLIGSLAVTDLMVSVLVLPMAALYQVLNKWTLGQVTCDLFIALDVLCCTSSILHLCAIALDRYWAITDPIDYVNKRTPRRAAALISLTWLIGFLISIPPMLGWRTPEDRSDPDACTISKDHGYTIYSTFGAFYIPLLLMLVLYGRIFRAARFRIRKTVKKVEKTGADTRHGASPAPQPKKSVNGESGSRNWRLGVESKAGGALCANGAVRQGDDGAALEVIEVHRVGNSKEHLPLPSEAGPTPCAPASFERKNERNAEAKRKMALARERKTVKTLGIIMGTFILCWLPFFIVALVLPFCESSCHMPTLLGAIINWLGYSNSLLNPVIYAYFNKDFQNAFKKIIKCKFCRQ

[11] = target: T4, Muscarinic acetylcholine receptor M2, CHRM2 (h) (Homo sapiens, UniProt P08172); conditions: control methoctramine
T4 sequence (P08172 1-466): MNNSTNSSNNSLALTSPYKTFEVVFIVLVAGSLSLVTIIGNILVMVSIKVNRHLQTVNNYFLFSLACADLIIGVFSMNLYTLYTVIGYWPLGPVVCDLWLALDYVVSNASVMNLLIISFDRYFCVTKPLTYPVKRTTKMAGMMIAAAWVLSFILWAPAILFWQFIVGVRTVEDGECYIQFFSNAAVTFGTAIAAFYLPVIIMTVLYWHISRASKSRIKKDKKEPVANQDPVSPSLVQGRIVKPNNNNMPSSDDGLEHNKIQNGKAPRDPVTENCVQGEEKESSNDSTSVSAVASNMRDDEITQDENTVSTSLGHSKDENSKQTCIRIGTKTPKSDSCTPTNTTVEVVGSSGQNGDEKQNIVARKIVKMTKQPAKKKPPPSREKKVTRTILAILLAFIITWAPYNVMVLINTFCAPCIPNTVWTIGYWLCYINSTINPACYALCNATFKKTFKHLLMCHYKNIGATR

[12] = Assignment of risk classifications to benchmark chemical-exposure scenarios; conditions: for risk: from table S1
[13] = target: Potassium voltage-gated channel subfamily H member 2 hERG, KCNH2 (h) (Homo sapiens, UniProt Q12809)
[14] = IPP screening at 10 uM, control diazepam
[15] = 10 uM, ligand/control Colchicine

Chain of Angiotensin-converting enzyme 2, ACE2 (h) (Q9BYF1 18-805): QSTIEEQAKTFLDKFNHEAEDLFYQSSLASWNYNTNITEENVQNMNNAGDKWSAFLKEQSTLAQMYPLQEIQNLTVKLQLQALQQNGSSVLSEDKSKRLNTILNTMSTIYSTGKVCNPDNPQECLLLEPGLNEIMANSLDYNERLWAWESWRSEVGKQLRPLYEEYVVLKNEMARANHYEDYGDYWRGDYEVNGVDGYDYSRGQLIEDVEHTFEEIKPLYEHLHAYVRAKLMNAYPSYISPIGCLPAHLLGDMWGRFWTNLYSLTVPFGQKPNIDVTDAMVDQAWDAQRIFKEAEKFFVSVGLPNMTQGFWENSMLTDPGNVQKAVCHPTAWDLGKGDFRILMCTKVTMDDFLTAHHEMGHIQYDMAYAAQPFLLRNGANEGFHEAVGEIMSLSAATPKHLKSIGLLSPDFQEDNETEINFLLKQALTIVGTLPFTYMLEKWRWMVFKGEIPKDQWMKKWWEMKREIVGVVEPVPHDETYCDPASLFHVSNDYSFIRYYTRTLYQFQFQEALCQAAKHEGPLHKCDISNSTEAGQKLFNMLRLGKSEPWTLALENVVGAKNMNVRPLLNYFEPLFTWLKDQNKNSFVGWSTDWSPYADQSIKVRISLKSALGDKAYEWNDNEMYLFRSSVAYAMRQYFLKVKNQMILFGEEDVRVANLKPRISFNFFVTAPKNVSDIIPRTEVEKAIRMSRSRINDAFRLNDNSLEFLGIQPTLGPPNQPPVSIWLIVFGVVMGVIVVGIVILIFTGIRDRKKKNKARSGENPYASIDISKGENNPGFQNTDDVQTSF
Chain of Vasopressin V1a receptor, AVPR1A (h) (P37288 whole entry): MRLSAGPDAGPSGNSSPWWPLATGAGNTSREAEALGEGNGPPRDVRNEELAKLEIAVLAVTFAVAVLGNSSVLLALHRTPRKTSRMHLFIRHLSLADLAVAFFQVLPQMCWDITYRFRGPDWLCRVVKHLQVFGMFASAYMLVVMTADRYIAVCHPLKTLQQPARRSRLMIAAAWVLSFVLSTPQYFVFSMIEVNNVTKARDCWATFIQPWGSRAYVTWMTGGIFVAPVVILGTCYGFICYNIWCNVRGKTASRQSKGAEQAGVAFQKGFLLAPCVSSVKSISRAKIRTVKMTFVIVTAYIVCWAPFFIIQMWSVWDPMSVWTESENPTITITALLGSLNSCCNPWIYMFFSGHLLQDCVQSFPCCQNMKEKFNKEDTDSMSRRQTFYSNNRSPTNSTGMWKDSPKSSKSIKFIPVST
Chain of Potassium voltage-gated channel subfamily H member 2 hERG, KCNH2 (h) (Q12809 whole entry): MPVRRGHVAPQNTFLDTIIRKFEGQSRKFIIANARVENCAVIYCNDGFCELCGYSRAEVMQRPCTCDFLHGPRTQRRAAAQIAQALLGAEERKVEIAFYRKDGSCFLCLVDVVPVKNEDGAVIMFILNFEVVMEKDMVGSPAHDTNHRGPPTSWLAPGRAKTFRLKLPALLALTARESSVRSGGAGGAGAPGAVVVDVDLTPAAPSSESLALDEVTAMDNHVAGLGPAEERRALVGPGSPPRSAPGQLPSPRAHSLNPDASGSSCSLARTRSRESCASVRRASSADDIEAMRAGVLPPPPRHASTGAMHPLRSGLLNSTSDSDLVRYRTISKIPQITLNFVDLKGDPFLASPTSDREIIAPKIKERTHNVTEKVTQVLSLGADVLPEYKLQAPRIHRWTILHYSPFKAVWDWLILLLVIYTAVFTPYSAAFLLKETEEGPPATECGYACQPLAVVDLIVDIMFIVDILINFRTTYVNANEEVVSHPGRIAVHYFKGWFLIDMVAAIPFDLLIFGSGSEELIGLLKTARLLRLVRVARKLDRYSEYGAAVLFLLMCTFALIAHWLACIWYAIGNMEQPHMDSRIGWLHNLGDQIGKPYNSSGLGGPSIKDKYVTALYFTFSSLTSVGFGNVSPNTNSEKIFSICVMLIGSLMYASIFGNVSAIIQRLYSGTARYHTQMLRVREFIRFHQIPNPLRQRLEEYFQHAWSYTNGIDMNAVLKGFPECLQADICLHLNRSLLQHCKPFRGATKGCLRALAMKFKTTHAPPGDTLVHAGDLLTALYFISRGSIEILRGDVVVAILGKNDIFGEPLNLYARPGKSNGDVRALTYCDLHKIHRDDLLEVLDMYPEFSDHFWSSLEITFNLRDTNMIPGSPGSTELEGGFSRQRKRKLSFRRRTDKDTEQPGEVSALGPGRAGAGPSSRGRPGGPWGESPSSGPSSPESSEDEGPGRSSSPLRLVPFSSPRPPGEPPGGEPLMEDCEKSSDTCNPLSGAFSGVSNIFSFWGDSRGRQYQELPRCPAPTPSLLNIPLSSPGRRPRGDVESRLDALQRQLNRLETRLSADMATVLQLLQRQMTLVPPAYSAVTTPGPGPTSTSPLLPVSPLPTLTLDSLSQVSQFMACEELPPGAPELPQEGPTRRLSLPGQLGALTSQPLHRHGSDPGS
Chain of cAMP-specific 3',5'-cyclic phosphodiesterase 4D, PDE4D (h) (Q08499 whole entry): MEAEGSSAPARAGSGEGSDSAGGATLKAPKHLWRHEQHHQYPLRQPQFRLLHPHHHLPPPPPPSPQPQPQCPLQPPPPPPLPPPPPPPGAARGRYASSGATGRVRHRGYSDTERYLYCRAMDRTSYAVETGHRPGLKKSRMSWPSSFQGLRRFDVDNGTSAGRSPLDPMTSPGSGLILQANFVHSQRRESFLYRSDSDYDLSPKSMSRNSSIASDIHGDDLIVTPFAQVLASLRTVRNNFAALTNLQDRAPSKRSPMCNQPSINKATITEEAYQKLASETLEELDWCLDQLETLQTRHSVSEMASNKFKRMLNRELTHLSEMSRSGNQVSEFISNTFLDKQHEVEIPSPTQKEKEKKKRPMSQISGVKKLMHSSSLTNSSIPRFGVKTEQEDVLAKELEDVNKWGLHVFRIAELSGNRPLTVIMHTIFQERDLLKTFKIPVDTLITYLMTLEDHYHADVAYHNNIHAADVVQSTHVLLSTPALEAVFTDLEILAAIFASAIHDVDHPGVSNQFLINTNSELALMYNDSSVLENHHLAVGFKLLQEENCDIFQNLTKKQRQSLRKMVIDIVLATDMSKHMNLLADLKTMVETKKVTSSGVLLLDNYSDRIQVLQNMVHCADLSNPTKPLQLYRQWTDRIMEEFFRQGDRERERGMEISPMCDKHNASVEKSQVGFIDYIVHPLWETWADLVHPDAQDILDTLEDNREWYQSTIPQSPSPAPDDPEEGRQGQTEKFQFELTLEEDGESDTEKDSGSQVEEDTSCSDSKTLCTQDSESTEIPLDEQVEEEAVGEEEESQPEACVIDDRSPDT

| Compound | Enzymatic activity ([1]; IPP screening at 10 uM) | Specific binding [2] | Specific binding [3] | Specific binding [4, 14] | Specific binding ([5]; IPP screening at 10 uM) | Specific binding [6] | IPP screening %, Specific binding ([7]; 10 uM) | IPP screening %, Specific binding ([8]; 10 uM) | IPP screening %, Enzymatic activity [9] | IPP screening %, Specific binding (Tubulin (r); [15]) | Specific binding ([10]; IPP screening at 10 uM) | Specific binding ([11]; IPP screening at 10 uM) | other results |
| --- | --- | --- | --- | --- | --- | --- | --- | --- | --- | --- | --- | --- | --- |
| CCOP(=S)(OCC)Oc1nc(Cl)c(Cl)cc1Cl [Chlorpyrifos, O,O-Diethyl O-(3,5,6-trichloropyridin-2-yl) phosphorothioate] | 51.8% | 47.7% | 15.4% | -11.0% | -2.4% | 13.4% | -6.8% | 0.5% | -18.8% | -20.0% | 11.6% | -21.3% | risk ([12]; Oral, 0.1 mg/kg, Tablet, Exp3): 1 |
| CC(C)(C)c1ccc(CCOc2ncnc3ccccc23)cc1 [Fenazaquin, 4-[2-(4-tert-Butylphenyl)ethoxy]quinazoline] | 14.7% |  |  | 7.6% | -1.2% |  | -5.5% | 8.6% | -29.1% | -2.0% | -11.2% | 14.3% | Specific binding ([2]; IPP screening at 10 uM, control nitrendipine): 19.8%; Specific binding ([3]; IPP screening at 10 uM, control α-dendrotoxin): -1.6%; Specific binding ([6]; IPP screening at 10 uM, control veratridine): 39.5%; IPP screening %, Specific binding ([13]; 10 uM, [3H] Dofetilide, control Terfenadine): 34.9%; Risk Classification ([12]; Oral, residue, 0.005 mg/kg bw/day): Low risk; risk ([12]; Oral, 17% ADI 0.005 mg/kg bw/day, Food residue, Exp2): 0; risk ([12]; Oral, ADI 0.005 mg/kg bw/day, Food residue, Exp3): 0 |
| CC1(C)O[C@@H]2[C@@H](CO[C@@]3(COS(N)(=O)=O)OC(C)(C)O[C@@H]23)O1 [Topiramate, [(3aS,5aR,8aR,8bS)-2,2,7,7-Tetramethyltetrahydro-2H,3aH,7H-bis[1,3]dioxolo[4,5-b:4',5'-d]pyran-3a-yl]methyl sulfamate (non-preferred name)] |  | -33.5% |  |  |  |  |  |  |  |  |  |  | Enzymatic activity ([1]; IPP screening at 100 uM): 27.9%; Specific binding ([3]; IPP screening at 100 uM, control α-dendrotoxin): -2.7%; Specific binding ([4]; IPP screening at 100 uM, control diazepam): 9.7%; Specific binding ([5]; IPP screening at 100 uM): 3.5%; Specific binding ([6]; IPP screening at 100 uM, control veratridine): 30.2%; IPP screening %, Specific binding ([7]; 100 uM): 7.2%; IPP screening %, Specific binding ([8]; 100 uM): -7.3%; IPP screening %, Specific binding (Tubulin (r); 100 uM, ligand/control Colchicine): 5%; Specific binding ([10]; IPP screening at 100 uM): 18.5%; Specific binding ([11]; IPP screening at 100 uM): 0.7%; IPP screening %, Specific binding ([13]; human): -13.1%; Risk Classification ([12]; Oral 50 mg/day): High risk; Risk Classification ([12]; Oral 500 mg/day): High risk; risk ([12]; Oral, High therapeutic, 500mg/day, Tablet, Exp1): 1; risk ([12]; Oral, Low therapeutic, 50mg/day, Tablet, Exp2): 1 |
| (4S,4aR,5S,5aR,6S,12aS)-4-(Dimethylamino)-3,5,6,10,12,12a-hexahydroxy-6-methyl-1,11-dioxo-1,4,4a,5,5a,6,11,12a-octahydrotetracene-2-carboxamide--hydrogen chloride (1/1) [Oxytetracycline hydrochloride] | 9.6% | -32.1% | -19.0% | -0.4% | 0.6% | 10.5% | 1.6% | -8.1% | -18.6% | -3.0% | 1.5% |  | IPP screening %, Specific binding [13]: -10.2% |
| mixture of 2- and 3-tert-butyl-4-methoxyphenol [Butylated Hydroxyanisole] | 12.2% | -14.2% | 4.9% |  | 0.4% | 16.8% | 15.2% | -1.0% | -6.0% |  | -7.7% | 8.9% | Specific binding [4]: -10.9%; IPP screening %, Specific binding (Tubulin (r)): -5.0% |
